The source of these data is patent publication US10626144B2, “Peptide derivatives and uses thereof” (Nosopharm, priority 2014, dated 2020).

The structures appear in SMILES notation. pIC50: −log10 of the molar value. Like-named read-outs stand apart in the source and are kept apart here. Square brackets hold non-standard residues; d marks the D form. Peptide text beside a SMILES is read from it. Phe(4-tBu) = CC(C)(C)c1ccc(C[C@H](N)C(=O)O)cc1; Phe(3-Cl) = N[C@@H](Cc1cccc(Cl)c1)C(=O)O; Phe(4-Cl) = N[C@@H](Cc1ccc(Cl)cc1)C(=O)O; Phe(4-I) = N[C@@H](Cc1ccc(I)cc1)C(=O)O; Dab(3S-OH) = NC[C@H](O)[C@H](N)C(=O)O; ΔZArg = N=C(N)NCC/C=C(\N)C(=O)O; dOrn = NCCC[C@@H](N)C(=O)O; Pra = C#CC[C@H](N)C(=O)O Bounds are passed on as bounds.

As usually defined, the pIC50 is −log10 of the IC50, conventionally taken in molar units.

The subject of assay [1] is Escherichia coli ATCC 25922. The assay can be described thus: MIC, broth microdilution (CLSI), reference strain. The following applies: CAMHB. On the technique in general: Broth dilution looks for growth in wells or tubes with falling amounts of substance.
Assay [2] deals with Acinetobacter baumannii ATCC 19606. The assay can be described thus: MIC, broth microdilution (CLSI), reference strain. The following applies: CAMHB.
In assay [3] the test system is Staphylococcus aureus ATCC 13709. The assay can be described thus: MIC, broth microdilution (CLSI), reference strain. The following applies: CAMHB.
Assay [4] addresses N-type calcium channels (Cav2.2) (Rattus norvegicus (Rat), UniProt Q02294). The assay can be described thus: biochemical. Format: binding.
The test system of assay [5] is Pseudomonas aeruginosa ATCC 27853. The assay can be described thus: MIC, broth microdilution (CLSI), reference strain. The conditions noted are these: CAMHB.
Where [6] appears, read: class symbol, rat cerebral cortex, [125I]ω-conotoxin GVIA 0.001 nM, 30 minutes at room temperature, read-out: IC50 Cav2.2.

As for `C[C@H](NC(=O)[C@@H](NC(=O)[C@@H](N)CCCCN)[C@@H](O)CN)C(=O)NCC(=O)N[C@H](CCCN)C(=O)N1CCC[C@H]1C(=O)N[C@@H](Cc1cccc(Cl)c1)C(=O)N[C@@H](CCCCN)C(=O)N/C(=C\CCNC(=N)N)C(=O)O` [24.88] (H-K[Dab(3S-OH)]AG[dOrn]P[Phe(3-Cl)]K[ΔZArg]-OH), in assay [1], the “Ec: MIC Escherichia coli ATCC 25922” value is “++ (≤8 μg/mL)”. In addition, the “Ab: MIC Acinetobacter baumannii ATCC 19606” value in assay [2] was “− (>32 μg/mL)”. In addition, in assay [3], the “Sa: MIC Staphylococcus aureus ATCC 13709” value is recorded as “++ (≤8 μg/mL)”. The negative-log IC50 (pIC50) in assay [4] (setting [6]) is less than 6.52. For the same compound, the “Pa: MIC Pseudomonas aeruginosa ATCC 27853” value in assay [5] is listed as “− (>32 μg/mL)”.

For `C[C@H](NC(=O)[C@@H](NC(=O)[C@@H](N)CCCCN)[C@@H](O)CN)C(=O)NCC(=O)N[C@H](CCCN)C(=O)N1CCC[C@H]1C(=O)N[C@@H](Cc1ccc(C(C)(C)C)cc1)C(=O)N[C@@H](CCCCN)C(=O)N/C(=C\CCNC(=N)N)C(=O)O` [24.93] (H-K[Dab(3S-OH)]AG[dOrn]P[Phe(4-tBu)]K[ΔZArg]-OH), the “Ec: MIC Escherichia coli ATCC 25922” value in assay [1] is on record as “++ (≤8 μg/mL)”. For the same compound, the “Ab: MIC Acinetobacter baumannii ATCC 19606” value in assay [2] was “− (>32 μg/mL)”. The “Sa: MIC Staphylococcus aureus ATCC 13709” value in assay [3] is “++ (≤8 μg/mL)”. The negative logarithm of the IC50 (pIC50) in assay [4] (setting [6]) is less than 6.52. The “Pa: MIC Pseudomonas aeruginosa ATCC 27853” value in assay [5] is on record as “− (>32 μg/mL)”.

`C[C@H](NC(=O)[C@@H](NC(=O)[C@@H](N)CCCCN)[C@@H](O)CN)C(=O)NCC(=O)N[C@H](CCCN)C(=O)N1CCC[C@H]1C(=O)N[C@@H](Cc1ccc(Cl)cc1)C(=O)N[C@@H](CCCCN)C(=O)N/C(=C\CCNC(=N)N)C(=O)O` [24.97] (H-K[Dab(3S-OH)]AG[dOrn]P[Phe(4-Cl)]K[ΔZArg]-OH): in assay [1], the “Ec: MIC Escherichia coli ATCC 25922” value was “++ (≤8 μg/mL)”. Moreover, in assay [2], the “Ab: MIC Acinetobacter baumannii ATCC 19606” value was “− (>32 μg/mL)”. Further, the “Sa: MIC Staphylococcus aureus ATCC 13709” value in assay [3] is on record as “++ (≤8 μg/mL)”. In assay [4] (setting [6]), the pIC50 is less than 6.52. Also, the “Pa: MIC Pseudomonas aeruginosa ATCC 27853” value in assay [5] is given as “− (>32 μg/mL)”.

For the compound `C[C@H](NC(=O)[C@@H](NC(=O)[C@@H](N)CCCCN)[C@@H](O)CN)C(=O)NCC(=O)N[C@H](CCCN)C(=O)N1CCC[C@H]1C(=O)N[C@@H](Cc1ccc(I)cc1)C(=O)N[C@@H](CCCCN)C(=O)N/C(=C\CCNC(=N)N)C(=O)O` [24.103] (H-K[Dab(3S-OH)]AG[dOrn]P[Phe(4-I)]K[ΔZArg]-OH), in assay [1], the “Ec: MIC Escherichia coli ATCC 25922” value was “++ (≤8 μg/mL)”. The “Ab: MIC Acinetobacter baumannii ATCC 19606” value in assay [2] is reported as “− (>32 μg/mL)”. Besides, the “Sa: MIC Staphylococcus aureus ATCC 13709” value in assay [3] was “++ (≤8 μg/mL)”. The negative logarithm of the IC50 (pIC50) in assay [4] (setting [6]) was less than 6.52. For the same compound, the “Pa: MIC Pseudomonas aeruginosa ATCC 27853” value in assay [5] is on record as “− (>32 μg/mL)”.

Regarding `C[C@H](NC(=O)[C@@H](NC(=O)[C@@H](N)CCCCN)[C@@H](O)CN)C(=O)NCC(=O)N[C@H](CCCN)C(=O)N1CCC[C@H]1C(=O)N[C@@H](CC(N)=O)C(=O)N[C@@H](CCCCN)C(=O)N/C(=C\CCNC(=N)N)C(=O)O` [24.112] (H-K[Dab(3S-OH)]AG[dOrn]PNK[ΔZArg]-OH), the “Ec: MIC Escherichia coli ATCC 25922” value in assay [1] is listed as “− (>32 μg/mL)”. Moreover, the “Ab: MIC Acinetobacter baumannii ATCC 19606” value in assay [2] is listed as “− (>32 μg/mL)”. Further, the “Sa: MIC Staphylococcus aureus ATCC 13709” value in assay [3] is recorded as “+ (≤32 μg/mL)”. For the same compound, the pIC50 in assay [4] was less than 6.52; in assay [4] (value in brackets, rat cerebral cortex, [125I]ω-conotoxin GVIA 0.001 nM, read-out: IC50 Cav2.2), 6.10. Also, the “Pa: MIC Pseudomonas aeruginosa ATCC 27853” value in assay [5] is “− (>32 μg/mL)”.

As for `C#CC[C@H](NC(=O)[C@@H]1CCCN1C(=O)[C@@H](CCCN)NC(=O)CNC(=O)[C@H](C)NC(=O)[C@@H](NC(=O)[C@@H](N)CCCCN)[C@@H](O)CN)C(=O)N[C@@H](CCCCN)C(=O)N/C(=C\CCNC(=N)N)C(=O)O` [24.135] (H-K[Dab(3S-OH)]AG[dOrn]P[Pra]K[ΔZArg]-OH), the “Ec: MIC Escherichia coli ATCC 25922” value in assay [1] is reported as “+ (≤32 μg/mL)”. In addition, in assay [2], the “Ab: MIC Acinetobacter baumannii ATCC 19606” value is “− (>32 μg/mL)”. For the same compound, in assay [3], the “Sa: MIC Staphylococcus aureus ATCC 13709” value is given as “+ (≤32 μg/mL)”. Besides, in assay [4] (setting [6]), the negative-log IC50 (pIC50) was less than 6.52. Besides, the “Pa: MIC Pseudomonas aeruginosa ATCC 27853” value in assay [5] is listed as “− (>32 μg/mL)”.

Take `C[C@H](NC(=O)[C@@H](NC(=O)[C@@H](N)CCCCN)[C@@H](O)CN)C(=O)NCC(=O)N[C@H](CCCN)C(=O)N1CCC[C@H]1C(=O)N[C@@H](Cc1ccc(O)cc1)C(=O)N[C@@H](CCCCN)C(=O)N/C(=C\CCNC(=N)N)C(=O)O` [24.138] (H-K[Dab(3S-OH)]AG[dOrn]PYK[ΔZArg]-OH): the “Ec: MIC Escherichia coli ATCC 25922” value in assay [1] is recorded as “+ (≤32 μg/mL)”. In assay [2], the “Ab: MIC Acinetobacter baumannii ATCC 19606” value is on record as “− (>32 μg/mL)”. In assay [3], the “Sa: MIC Staphylococcus aureus ATCC 13709” value is listed as “+ (≤32 μg/mL)”. Further, the pIC50 in assay [4] (setting [6]) was less than 6.52. The “Pa: MIC Pseudomonas aeruginosa ATCC 27853” value in assay [5] is reported as “− (>32 μg/mL)”.
